# Laboratory results as given in patent publication US10695341B2, “Compositions and methods for treating endometriosis” (UNIVERSITY OF SOUTH FLORIDA, priority 2014, dated 2020).
# Experiments:
# [1] = tested on: uterine horns and endometriotic lesions; test: H&E histopathology of uterine horns and lesions from treated mice; assay type: in vivo, C57BL/6 mice
# Method: A randomly selected subset of the collected lesions and uterine horns were processed for staining with hematoxylin and eosin (H&E) (pathologically confirmed endometriotic lesions from PBS and HCQ-treated mice, n=15 each; uterine horns derived from PBS-treated mice, n=10; and uterine horns derived from HCQ-treated mice, n=10).
# Five-week-old C57BL/6 female mice were purchased from Jackson laboratories. All animals were maintained under standard 12 h photoperiod; food and water were available ad libitum throughout the study. All experimental procedures and animal care were approved by the Animal Care and Use Committee (IACUC) of the University of South Florida (R IS00000101), in accordance with the principles described in the Guide for the Care and Use of Laboratory Animals of the National Institutes of Health. All surgical procedures were performed under aseptic conditions using anesthesia. The mouse model of endometriosis was performed as previously described. […] Lesions were measured using a caliper. Volume of the lesions was calculated according to the formula: 4/3πr^2R.
# Collected samples were immediately preserved in 10% neutral buffered formalin at the animal facility. […] Lesions were analyzed from independent blocks. […]
# [2] = tested on: uterine horns and ovaries; test: Murine tissue microarray H&E and immunohistochemistry (uterine horns, ovaries); assay type: in vivo, mouse
# Excerpt: To determine whether HCQ treatment alters the histopathology (tissue organization) of the recipient's uterine horns and other tissues, a murine tissue microarray (TMA) comprised of 113 cores and performed H&E as well as immunohistochemical staining was developed. The TMA contained uterine horns and ovaries from 10 PBS- and 10 HCQ-treated mice, as well as a mammary gland, a kidney, a lymph node and a small intestine from a PBS-treated mouse for use as antibody controls. […] Estrogen receptor α (ERα) was primarily localized to the epithelial cell layer of the endometrial glands, while progesterone receptor (PR) appeared to be evenly distributed between the stromal and epithelial cell compartments. However, the PR staining was comparatively much weaker to that for ERα. […] LC3B expression appeared more intense in HCQ-treated mice relative to PBS-treated mice in both the stromal and epithelial compartments (FIGS. 19A-19X). […] Collected samples were immediately preserved in 10% neutral buffered formalin at the animal facility. Samples were embedded in paraffin, sectioned, and transferred to slides for hematoxylin/eosin and immunohistochemical staining. A pathologist reviewed each case and delimited the region of interest, containing epithelial and stromal cells, for each specimen. A mouse tissue microarray was prepared at the Tissue Core Facility at the Moffitt Cancer Center. The mouse tissue microarray contained a total of 113 core samples, which included 10 uterine horns and 10 ovaries from both PBS and HCQ treated mice. As control specimens for the utilized antibodies, the TMA included mouse mammary tissue, […], small intestine, and lymph nodes from a PBS treated mouse. Lesions were analyzed from independent blocks. Slides were stained using a Leica Bond RX automated system (Leica Biosytems, Buffalo Grove, Ill.) following manufacturers instructions with proprietary reagents. Slides were deparaffinized on an automated system with Dewax Solution (Leica Biosystems). The antigen retrieval method used for Progesterone Receptor (PR) was enzymatic with Enzyme Solution 1 at 15 min (Leica), for vimentin and Estrogen Receptor (ER) was heat induced with Epitope Retrieval Solution 1 at 20 min (Leica), for cytokeratin 8 (CK-8) was heat induced with Epitope Retrieval Solution at 10 min (Leica), and for LC3B was heat-induced with Epitope Retrieval Solution 1 at 10 min (Leica Biosystems). All antibodies were diluted in Dako antibody diluent (Carpenteria, Calif.): PR (# ab131486, 1:500, Abcam, Cambridge, Mass.), vimentin (#5741 (D21H3), 1:100, Cell Signaling, Danvers, Mass.), ERα (# ab32063 ([…]), 1:200, Abcam, Cambridge, Mass.), Cytokeratin-8 (# ab53280 (E[…]), 1:200, Abcam, Cambridge, Mass.), and LC3B (# ab51520, 1:1,500, Abcam, Cambridge, Mass.) and incubated for 30 min. The Leica Bond Polymer Refine Detection System was used with a polymer incubation for 8 min. Hematoxylin was used as counterstain and slides were dehydrated and covered with a coverslip, following standard histological protocol.
compound,measurement,setting,value
"CCN(CCO)CCCC(C)Nc1ccnc2cc(Cl)ccc12 (stereo not shown) [HCQ, hydroxychloroquine]",uterine horns with irregular epithelium pattern,"[1]; uterine horns from HCQ-treated mice, 60 mg/kg",5 out of 10
same,histology of ectopic growths (glandular components),"[1]; vs PBS, p=0.03 Fisher's exact test",did not histologically resemble endometriotic lesions
same,"luminal epithelium of the uterine horn endometrium (H&E, TMA)",[2]; HCQ-treated mice,irregular pattern
same,intensity or localization of IHC markers in ovaries,[2]; HCQ-treated relative to PBS-treated mice,no marked differences
same,ERα and PR staining pattern or intensity in uterine horns,[2]; PBS vs HCQ-treated mice,no differences
same,vimentin and CK8 localization in uterine horns,"[2]; stromal and epithelial compartments, independently of HCQ treatment",appropriately localized
same,LC3B expression in uterine horns (IHC),"[2]; stromal and epithelial compartments, relative to PBS",more intense
